Data published in patent US20100243432A1, “HUMIDIFIER” (priority 2007, published 2010).

Assay: solubility of AgCl calculated from solubility product
Format: physicochemical
Details: in water
Source text: As described above, it can be seen that when the silver ions are eluted through the electrolysis, the sterilization can be more efficiently conducted than when the silver ions are eluted through other methods.

SMILES: [Cl][Ag] [AgCl, silver chloride]
- dissolvable AgCl, as a concentration of the silver ions: approximately 1.5 mg/L
